Test results as given in patent publication US20190127359A1, “Compounds & Methods for the Enhanced Degradation of Targeted Proteins & Other Polypeptides by an E3 Ubiquitin Ligase” (YALE UNIVERSITY, priority 2012, published 2019).

Molecular target: VHL (Homo sapiens, UniProt P40337)
Test: Fluorescence polarization competition assay (HIF-1α peptide FP displacement)

| IC50 (IC50 (μM) 10% DMSO, 10% DMSO) | IC50 (μM) 1% DMSO (1% DMSO) | IC50 (μM) 10% DMSO (10% DMSO) | IC50 (IC50 (μM) 1% DMSO, 1% DMSO) | SMILES |
| --- | --- | --- | --- | --- |
| > 1000 µM |  |  |  | CC(=O)Nc1ccc(Br)cc1C(=O)N1C[C@H](O)C[C@H]1C(=O)NCc1ccc(Cl)cc1 [VL083] |
| 460 µM |  |  |  | O=C(NCc1ccc(Cl)cc1)[C@@H]1C[C@@H](O)CN1C(=O)c1ccc([N+](=O)[O-])c(O)c1 [VL084] |
| 27.1 µM |  |  |  | Cc1cc(CC(=O)N2C[C@H](O)C[C@H]2C(=O)NCc2ccc(Cl)cc2Cl)on1 [VL085] |
| 168 µM |  |  |  | Cc1cc(CC(=O)N2C[C@H](O)C[C@H]2C(=O)NCc2cccc3ccccc23)on1 [VL086] |
| 103 µM |  |  |  | Cc1cc(CC(=O)N2C[C@H](O)C[C@H]2C(=O)NCc2ccc(S(N)(=O)=O)cc2)on1 [VL087] |
| 18.2 µM |  |  |  | Cc1cc(CC(=O)N2C[C@H](O)C[C@H]2C(=O)NCc2ccc(C#N)cc2)on1 [VL088] |
| 40.8 µM |  |  |  | Cc1cc(CC(=O)N2C[C@H](O)C[C@H]2C(=O)NCc2ccc(C(=O)C(C)C)cc2)on1 [VL089] |
| 45.2 µM |  |  |  | Cc1cc(CC(=O)N2C[C@H](O)C[C@H]2C(=O)NCc2ccc(C(=O)CC(C)C)cc2)on1 [VL090] |
| 23 µM |  |  |  | Cc1cc(CC(=O)N2C[C@H](O)C[C@H]2C(=O)NCc2ccc(C(=O)OCC3CC3)cc2)on1 [VL091] |
| 510 µM |  |  |  | CON(C)C(=O)c1ccc(CNC(=O)[C@@H]2C[C@@H](O)CN2C(=O)Cc2cc(C)no2)cc1 [VL093] |
| 540 µM |  |  |  | Cc1cc(CC(=O)N2C[C@H](O)C[C@H]2C(=O)NCc2cccc3cccnc23)on1 [VL094] |
| 32.5 µM |  |  |  | O=C(NCc1ccc(Cl)cc1)[C@@H]1C[C@@H](O)CN1C(=O)c1ccncc1 [VL096] |
| 49.4 µM |  |  |  | O=C(NCc1ccc(Cl)cc1)[C@@H]1C[C@@H](O)CN1C(=O)c1cccnc1 [VL097] |
| 244 µM |  |  |  | O=C(NCc1ccc(Cl)cc1)[C@@H]1C[C@@H](O)CN1C(=O)c1ccccn1 [VL098] |
| 39.6 µM |  |  |  | O=C(NCc1ccc(Cl)cc1)[C@@H]1C[C@@H](O)CN1C(=O)c1ccnc(Cl)c1 [VL099] |
| 63.6 µM |  |  |  | O=C(NCc1ccc(Cl)cc1)[C@@H]1C[C@@H](O)CN1C(=O)c1cncc(Br)c1 [VL100] |
| 940 µM |  |  |  | Cc1nc(C(=O)N2C[C@H](O)C[C@H]2C(=O)NCc2ccc(Cl)cc2)co1 [VL101] |
| 64.5 µM |  |  |  | Cc1n[nH]cc1C(=O)N1C[C@H](O)C[C@H]1C(=O)NCc1ccc(Cl)cc1 [VL102] |
| > 1000 µM |  |  |  | O=C(NCc1ccc(Cl)cc1)[C@@H]1C[C@@H](O)CN1C(=O)CCN1CCCCC1 [VL104] |
| > 1000 µM |  |  |  | O=C(NCc1ccc(Cl)cc1)[C@@H]1C[C@@H](O)CN1C(=O)Cc1cccnc1 [VL105] |
| > 1000 µM |  |  |  | Cc1nc(S)sc1CC(=O)N1C[C@H](O)C[C@H]1C(=O)NCc1ccc(Cl)cc1 [VL106] |
| 347 µM |  |  |  | O=C(NCc1ccc(Cl)cc1)[C@@H]1C[C@@H](O)CN1C(=O)CN1C(=O)CSC1=S [VL108] |
| 349 µM |  |  |  | Cc1cc(CC(=O)N2C[C@H](O)C[C@H]2C(=O)NCc2c[nH]c3ccccc23)on1 [VL109] |

| IC50 (IC50 (μM) 10% DMSO, 10% DMSO) | IC50 (μM) 1% DMSO (1% DMSO) | IC50 (μM) 10% DMSO (10% DMSO) | IC50 (IC50 (μM) 1% DMSO, 1% DMSO) | SMILES |
| --- | --- | --- | --- | --- |
| 138 µM |  |  |  | Cc1cc(CC(=O)N2C[C@H](O)C[C@H]2C(=O)NCc2ccc(N3CCCCC3)cc2)on1 [VL110] |
| 11.3 µM |  |  |  | Cc1cc(CC(=O)N2C[C@H](O)C[C@H]2C(=O)NCc2ccc(-c3ncco3)cc2)on1 [VL112] |
|  | Inactive | Inactive |  | Cc1cc(CC(=O)N2C[C@H](F)C[C@H]2C(=O)NCc2ccc(-c3cnco3)cc2)on1 [VL113] |
|  | Inactive | Inactive |  | CC(=O)O[C@@H]1C[C@@H](C(=O)NCc2ccc(-c3cnco3)cc2)N(C(=O)Cc2cc(C)no2)C1 [VL114] |
| 17 µM |  |  | 19 µM | Cc1cc(CC(=O)N2C[C@H](O)C[C@H]2C(=O)NCc2cccc(-c3scnc3C)c2)on1 [VL115] |
| 5 µM |  |  | 13 µM | Cc1cc(CC(=O)N2C[C@H](O)C[C@H]2C(=O)NCc2ccc(-c3ocnc3C)cc2)on1 [VL117] |
| 16.4 µM |  |  | 31 µM | Cc1cc(CC(=O)N2C[C@H](O)C[C@H]2C(=O)NCc2cccc(-c3cccn3C)c2)on1 [VL118] |
| 17.8 µM |  |  | 33 µM | Cc1cc(CC(=O)N2C[C@H](O)C[C@H]2C(=O)NCc2ccc(-c3cccn3C)cc2)on1 [VL119] |
| > 1000 µM |  |  | > 1000 µM | O=C(NCc1ccc(Cl)cc1)[C@@H]1C[C@@H](O)CN1C(=O)Cc1c[nH]cn1 [VL120] |
| > 1000 µM |  |  | > 1000 µM | O=C(NCc1ccc(Cl)cc1)[C@@H]1C[C@@H](O)CN1C(=O)c1ccccc1-c1cnco1 [VL121] |
| 102 µM |  |  | 220 µM | O=C(NCc1ccc(Cl)cc1)[C@@H]1C[C@@H](O)CN1C(=O)c1cccc(-c2cnco2)c1 [VL122] |
| 560 µM |  |  | 404 µM | O=C(NCc1ccc(Cl)cc1)[C@@H]1C[C@@H](O)CN1C(=O)c1cccc(-c2ncc[nH]2)c1 [VL123] |
| 990 µM |  |  | 670 µM | O=C(NCc1ccc(Cl)cc1)[C@@H]1C[C@@H](O)CN1C(=O)c1cccc2[nH]ccc12 [VL124] |
| 790 µM |  |  | 568 µM | O=C(NCc1ccc(Cl)cc1)[C@@H]1C[C@@H](O)CN1C(=O)c1cccc2[nH]cnc12 [VL125] |
| 88.1 µM |  |  | 82 µM | O=C(NCc1ccc(Cl)cc1)[C@@H]1C[C@@H](O)CN1C(=O)c1ccc2[nH]ncc2c1 [VL126] |
| 47.7 µM |  |  | 73 µM | O=C(NCc1ccc(Cl)cc1)[C@@H]1C[C@@H](O)CN1C(=O)c1ccc2cn[nH]c2c1 [VL127] |
| 57.9 µM |  |  | 224 µM | O=C(NCc1ccc(Cl)cc1)[C@@H]1C[C@@H](O)CN1C(=O)c1cccc2cnccc12 [VL128] |
| 760 µM |  |  | 493 µM | O=C(NCc1ccc(Cl)cc1)[C@@H]1C[C@@H](O)CN1C(=O)c1cccc2cccnc12 [VL129] |
| > 1000 µM |  |  | > 1000 µM | O=C(NCc1ccc(Cl)cc1)[C@@H]1C[C@@H](O)CN1S(=O)(=O)c1cccc2cccnc12 [VL130] |
| 8 µM |  |  | 19 µM | Cc1cc(CC(=O)N2C[C@H](O)C[C@H]2C(=O)NCc2ccc(-c3ncon3)cc2)on1 [VL131] |
| 77.7 µM |  |  | 85 µM | COc1ccc(Cn2cncc2-c2ccc(CNC(=O)[C@@H]3C[C@@H](O)CN3C(=O)Cc3cc(C)no3)cc2)cc1 [VL132] |
| 2.2 µM |  |  | 7.5 µM | Cc1cc(CC(=O)N2C[C@H](O)C[C@H]2C(=O)NCc2ccc(-c3cc[nH]c3)cc2)on1 [VL133, (2S,4R)—N-(4-(1H-pyrrol-3-yl)benzyl)-4-hydroxy-1-(2-(3-methylisoxazol-5-yl)acetyl)pyrrolidine-2-carboxamide] |
| 48.1 µM |  |  | 54 µM | Cc1cc(CC(=O)N2C[C@H](O)C[C@H]2C(=O)NCc2cccc(-c3cc[nH]c3)c2)on1 [VL134] |

| IC50 (IC50 (μM) 10% DMSO, 10% DMSO) | IC50 (μM) 1% DMSO (1% DMSO) | IC50 (μM) 10% DMSO (10% DMSO) | IC50 (IC50 (μM) 1% DMSO, 1% DMSO) | SMILES |
| --- | --- | --- | --- | --- |
| 28.2 µM |  |  | 540 µM | COC(=O)Cc1cn(CC(=O)N2C[C@H](O)C[C@H]2C(=O)NCc2ccc(-c3ccccc3)cc2)nn1 [VL136] |
| 35.6 µM |  |  | 128 µM | COCc1cn(CC(=O)N2C[C@H](O)C[C@H]2C(=O)NCc2ccc(-c3ccccc3)cc2)nn1 [VL137] |
| 52.2 µM |  |  | 70 µM | Cc1cc(CC(=O)N2C[C@H](O)C[C@H]2C(=O)NCc2ccc(-c3c(C)noc3C)cc2)on1 [VL138] |
| 24.7 µM |  |  | 44 µM | Cc1cc(CC(=O)N2C[C@H](O)C[C@H]2C(=O)NCc2ccc(-c3cn[nH]c3)cc2)on1 [VL139] |
| 10.3 µM |  |  | 17 µM | Cc1cc(CC(=O)N2C[C@H](O)C[C@H]2C(=O)NCc2ccc(-c3c[nH]nn3)cc2)on1 [VL140] |
| 192 µM |  |  | 220 µM | COCc1cn(CC(=O)N2C[C@H](O)C[C@H]2C(=O)NCc2ccc(Cl)cc2)nn1 [VL141] |
| 780 µM |  |  | > 1000 µM | Cc1cc(CC(=O)N2C[C@H](O)C[C@H]2C(=O)OCc2ccc(-c3ccccc3)cc2)on1 [VL142] |
| > 1000 µM |  |  | > 1000 µM | O=C(NCc1ccc(-c2ccccc2)cc1)[C@@H]1C[C@@H](O)CN1Cc1ccccc1Cl [VL143] |
| > 1000 µM |  |  | > 1000 µM | Cc1cc(CC(=O)N2C[C@H](O)C[C@H]2C(=O)OCc2ccc(Cl)cc2)on1 [VL144] |
| > 1000 µM |  |  | > 1000 µM | Cc1cc(CCN2C[C@H](O)C[C@H]2C(=O)NCc2ccc(-c3ccccc3)cc2)on1 [VL145] |
| 129 µM |  |  | 196 µM | Cc1cc(CC(=O)N2C[C@H](O)C[C@H]2C(=O)NCc2ccc(C(=O)O)cc2)on1 [VL146] |
| > 1000 µM |  |  | > 1000 µM | Cc1cc(CC(=O)N2C[C@H](O)C[C@H]2C(=O)N(C)Cc2ccc(Cl)cc2)on1 [VL147] |
| 23.8 µM |  |  | 113 µM | CCOC(=O)Cn1cc(-c2cccc(C(=O)N3C[C@H](O)C[C@H]3C(=O)NCc3ccc(Cl)cc3)c2)nn1 [VL148] |
| 16 µM |  |  | 41 µM | Cc1cc(CC(=O)N2C[C@H](O)C[C@H]2C(=O)NCc2ccc(-c3ccncc3)cc2)on1 [VL150] |
| 11 µM |  |  | 33 µM | Cc1cc(CC(=O)N2C[C@H](O)C[C@H]2C(=O)NCc2ccc(-c3ccc(F)nc3)cc2)on1 [VL151] |
| 22.8 µM |  |  | 32 µM | Cc1cc(CC(=O)N2C[C@H](O)C[C@H]2C(=O)NCc2ccc(-c3c(C)n[nH]c3C)cc2)on1 [VL152] |
| 978 µM |  |  |  | COC(=O)Cc1cn(-c2ccccc2C(=O)N2C[C@H](O)C[C@H]2C(=O)NCc2ccc(Cl)cc2)nn1 [VL153] |
| 118 µM |  |  | 77 µM | Cc1cc(CC(=O)N2C[C@H](O)C[C@H]2C(=O)NCc2ccc(-c3cscn3)cc2)on1 [VL154] |
| 17.4 µM |  |  | 14 µM | Cc1cc(CC(=O)N2C[C@H](O)C[C@H]2C(=O)NCc2ccc(-c3cncs3)cc2)on1 [VL155] |
| > 1000 µM |  |  | > 1000 µM | O=C(NCc1ccc(Cl)cc1)[C@@H]1C[C@@H](O)CN1C(=O)Cn1ccnc1 [VL156] |
| 372 µM |  |  | 360 µM | Cn1cc(CC(=O)N2C[C@H](O)C[C@H]2C(=O)NCc2ccc(Cl)cc2)cn1 [VL157] |
| 266 µM |  |  | 180 µM | Cc1cc(CC(=O)N2C[C@H](O)C[C@H]2C(=O)NCc2ccc(-c3cnc[nH]3)cc2)on1 [VL158] |
| 66.9 µM |  |  | 54 µM | Cc1cc(CC(=O)N2C[C@H](O)C[C@H]2C(=O)NCc2ccc(-c3cccnc3)cc2)on1 [VL159] |

| SMILES | IC50 (IC50 (μM) 10% DMSO, 10% DMSO) | IC50 (μM) 1% DMSO (1% DMSO) | IC50 (μM) 10% DMSO (10% DMSO) | IC50 (IC50 (μM) 1% DMSO, 1% DMSO) |
| --- | --- | --- | --- | --- |
| CC(C)[Si](c1cn(CC(=O)N2C[C@H](O)C[C@H]2C(=O)NCc2ccc(-c3ccccc3)cc2)nn1)(C(C)C)C(C)C [VL135] |  |  | Inactive | > 1000 µM |
